Molecular target: T1, 5-hydroxytryptamine receptor 2C (Homo sapiens, UniProt P28335)
T1 sequence (P28335 whole entry): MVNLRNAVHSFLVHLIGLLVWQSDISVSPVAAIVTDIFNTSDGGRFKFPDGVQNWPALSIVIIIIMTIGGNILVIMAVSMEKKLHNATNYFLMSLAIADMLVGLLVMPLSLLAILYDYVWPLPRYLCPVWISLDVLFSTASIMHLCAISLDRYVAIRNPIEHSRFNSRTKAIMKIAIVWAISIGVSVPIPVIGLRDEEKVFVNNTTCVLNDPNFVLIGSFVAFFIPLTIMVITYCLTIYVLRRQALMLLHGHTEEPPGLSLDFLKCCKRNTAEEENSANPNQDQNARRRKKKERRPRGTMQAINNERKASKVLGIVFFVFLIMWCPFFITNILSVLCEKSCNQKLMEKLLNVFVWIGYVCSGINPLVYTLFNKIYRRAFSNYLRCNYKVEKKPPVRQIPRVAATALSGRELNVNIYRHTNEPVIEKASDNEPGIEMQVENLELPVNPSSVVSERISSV
Assay: DRUGMATRIX: Serotonin (5-Hydroxytryptamine) 5-HT2C radioligand binding (ligand: [3H] Mesulergine)
Type: cell membranes, CHO-K1, Membrane
Conditions: cho-k1; Not Active = under 50% inhibition at 10 µM

Row | Structure (SMILES) | IC50
1 | O=C(O)CCCCC1CCSS1 (stereo not drawn) [LIPOIC ACID, ALPHA] | Not Active
2 | CN(C)C(=O)C(CCN1CCC(O)(c2ccc(Cl)cc2)CC1)(c1ccccc1)c1ccccc1 [LOPERAMIDE] | Not Active
3 | Oc1ccc2c3c1O[C@H]1[C@@H](O)CC[C@@]4(O)[C@@H](C2)N(CC2CCC2)CC[C@]314 [NALBUPHINE] | Not Active
4 | C[C@]12C=CC(=O)C=C1CC[C@@H]1[C@@H]2C(=O)C[C@@]2(C)[C@H]1CC[C@]2(O)C(=O)CO [PREDNISONE] | Not Active
5 | COC(=O)[C@H]1[C@H]2C[C@@H]3c4[nH]c5cc(OC)ccc5c4CCN3C[C@H]2C[C@@H](OC(=O)c2cc(OC)c(OC)c(OC)c2)[C@@H]1OC [RESERPINE] | Not Active
6 | O=C(O)c1ccccc1O [SALICYLIC ACID] | Not Active
7 | C[S+]([O-])c1ccc(-c2nc(-c3ccncc3)c(-c3ccc(F)cc3)[nH]2)cc1 (centres undefined) [SB-203580] | Not Active

Molecular target: T2, Substance-K receptor (Homo sapiens, UniProt P21452); further: in other assays of this panel Not Active means under 50% inhibition at 10 µM
T2 sequence (P21452 whole entry): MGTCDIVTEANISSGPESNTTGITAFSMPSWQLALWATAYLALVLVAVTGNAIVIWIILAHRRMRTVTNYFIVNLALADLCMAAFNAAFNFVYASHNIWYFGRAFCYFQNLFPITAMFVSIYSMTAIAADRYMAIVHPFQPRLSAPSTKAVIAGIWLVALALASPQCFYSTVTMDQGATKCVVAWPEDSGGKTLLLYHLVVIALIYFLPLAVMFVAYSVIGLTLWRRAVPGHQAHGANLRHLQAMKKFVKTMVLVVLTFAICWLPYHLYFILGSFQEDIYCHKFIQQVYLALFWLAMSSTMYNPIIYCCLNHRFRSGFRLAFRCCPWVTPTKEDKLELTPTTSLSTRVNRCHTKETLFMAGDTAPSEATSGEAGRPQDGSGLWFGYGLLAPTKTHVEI
Type: cell membranes, CHO, Membrane
Conditions: cho

Row | Structure (SMILES) | IC50
8 | O=C(O)CCCCC1CCSS1 (stereo not drawn) [LIPOIC ACID, ALPHA] | Not Active
9 | CN(C)C(=O)C(CCN1CCC(O)(c2ccc(Cl)cc2)CC1)(c1ccccc1)c1ccccc1 [LOPERAMIDE] | Not Active
10 | Oc1ccc2c3c1O[C@H]1[C@@H](O)CC[C@@]4(O)[C@@H](C2)N(CC2CCC2)CC[C@]314 [NALBUPHINE] | Not Active
11 | C[C@]12C=CC(=O)C=C1CC[C@@H]1[C@@H]2C(=O)C[C@@]2(C)[C@H]1CC[C@]2(O)C(=O)CO [PREDNISONE] | Not Active
12 | COC(=O)[C@H]1[C@H]2C[C@@H]3c4[nH]c5cc(OC)ccc5c4CCN3C[C@H]2C[C@@H](OC(=O)c2cc(OC)c(OC)c(OC)c2)[C@@H]1OC [RESERPINE] | Not Active
13 | O=C(O)c1ccccc1O [SALICYLIC ACID] | Not Active
14 | C[S+]([O-])c1ccc(-c2nc(-c3ccncc3)c(-c3ccc(F)cc3)[nH]2)cc1 (centres undefined) [SB-203580] | Not Active

Molecular target: C-C chemokine receptor type 2 (Homo sapiens, UniProt P41597); further: in other assays of this panel Not Active means under 50% inhibition at 10 µM
Sequence (P41597 whole entry): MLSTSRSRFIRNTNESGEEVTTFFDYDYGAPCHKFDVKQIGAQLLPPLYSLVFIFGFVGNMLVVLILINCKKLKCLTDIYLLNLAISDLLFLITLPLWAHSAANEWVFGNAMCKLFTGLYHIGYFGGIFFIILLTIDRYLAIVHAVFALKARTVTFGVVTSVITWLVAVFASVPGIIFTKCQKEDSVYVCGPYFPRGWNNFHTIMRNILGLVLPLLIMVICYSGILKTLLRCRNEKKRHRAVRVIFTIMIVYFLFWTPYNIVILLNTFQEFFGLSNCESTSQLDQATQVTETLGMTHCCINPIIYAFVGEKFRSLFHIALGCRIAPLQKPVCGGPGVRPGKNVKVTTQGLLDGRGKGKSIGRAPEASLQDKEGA
Type: cell membranes, Membrane
Conditions: cho-k1

Row | Structure (SMILES) | IC50
15 | O=C(O)CCCCC1CCSS1 (stereo not drawn) [LIPOIC ACID, ALPHA] | Not Active
16 | CN(C)C(=O)C(CCN1CCC(O)(c2ccc(Cl)cc2)CC1)(c1ccccc1)c1ccccc1 [LOPERAMIDE] | Not Active
17 | Oc1ccc2c3c1O[C@H]1[C@@H](O)CC[C@@]4(O)[C@@H](C2)N(CC2CCC2)CC[C@]314 [NALBUPHINE] | Not Active
18 | C[C@]12C=CC(=O)C=C1CC[C@@H]1[C@@H]2C(=O)C[C@@]2(C)[C@H]1CC[C@]2(O)C(=O)CO [PREDNISONE] | Not Active
19 | COC(=O)[C@H]1[C@H]2C[C@@H]3c4[nH]c5cc(OC)ccc5c4CCN3C[C@H]2C[C@@H](OC(=O)c2cc(OC)c(OC)c(OC)c2)[C@@H]1OC [RESERPINE] | Not Active
20 | O=C(O)c1ccccc1O [SALICYLIC ACID] | Not Active
21 | C[S+]([O-])c1ccc(-c2nc(-c3ccncc3)c(-c3ccc(F)cc3)[nH]2)cc1 (centres undefined) [SB-203580] | Not Active

Molecular target: T3, C-X-C chemokine receptor type 2 (Homo sapiens, UniProt P25025); further: in other assays of this panel Not Active means under 50% inhibition at 10 µM
T3 sequence (P25025 whole entry): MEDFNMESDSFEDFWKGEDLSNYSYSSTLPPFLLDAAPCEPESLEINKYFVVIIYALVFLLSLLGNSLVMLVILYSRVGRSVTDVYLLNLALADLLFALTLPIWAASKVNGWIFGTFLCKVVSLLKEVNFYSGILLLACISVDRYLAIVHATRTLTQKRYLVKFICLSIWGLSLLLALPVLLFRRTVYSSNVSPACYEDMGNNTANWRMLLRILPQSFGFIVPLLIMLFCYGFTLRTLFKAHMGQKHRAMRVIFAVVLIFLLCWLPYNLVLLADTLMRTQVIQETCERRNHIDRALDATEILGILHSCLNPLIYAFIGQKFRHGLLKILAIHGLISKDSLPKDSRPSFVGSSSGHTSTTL
Type: cell membranes, Membrane
Conditions: cho-k1

Row | Structure (SMILES) | IC50
22 | O=C(O)CCCCC1CCSS1 (stereo not drawn) [LIPOIC ACID, ALPHA] | Not Active
23 | CN(C)C(=O)C(CCN1CCC(O)(c2ccc(Cl)cc2)CC1)(c1ccccc1)c1ccccc1 [LOPERAMIDE] | Not Active
24 | Oc1ccc2c3c1O[C@H]1[C@@H](O)CC[C@@]4(O)[C@@H](C2)N(CC2CCC2)CC[C@]314 [NALBUPHINE] | Not Active
25 | C[C@]12C=CC(=O)C=C1CC[C@@H]1[C@@H]2C(=O)C[C@@]2(C)[C@H]1CC[C@]2(O)C(=O)CO [PREDNISONE] | Not Active
26 | COC(=O)[C@H]1[C@H]2C[C@@H]3c4[nH]c5cc(OC)ccc5c4CCN3C[C@H]2C[C@@H](OC(=O)c2cc(OC)c(OC)c(OC)c2)[C@@H]1OC [RESERPINE] | Not Active
27 | O=C(O)c1ccccc1O [SALICYLIC ACID] | Not Active
28 | C[S+]([O-])c1ccc(-c2nc(-c3ccncc3)c(-c3ccc(F)cc3)[nH]2)cc1 (centres undefined) [SB-203580] | Not Active

Molecular target: T4, Cysteinyl leukotriene receptor 1 (Homo sapiens, UniProt Q9Y271); further: in other assays of this panel Not Active means under 50% inhibition at 10 µM
T4 sequence (Q9Y271 whole entry): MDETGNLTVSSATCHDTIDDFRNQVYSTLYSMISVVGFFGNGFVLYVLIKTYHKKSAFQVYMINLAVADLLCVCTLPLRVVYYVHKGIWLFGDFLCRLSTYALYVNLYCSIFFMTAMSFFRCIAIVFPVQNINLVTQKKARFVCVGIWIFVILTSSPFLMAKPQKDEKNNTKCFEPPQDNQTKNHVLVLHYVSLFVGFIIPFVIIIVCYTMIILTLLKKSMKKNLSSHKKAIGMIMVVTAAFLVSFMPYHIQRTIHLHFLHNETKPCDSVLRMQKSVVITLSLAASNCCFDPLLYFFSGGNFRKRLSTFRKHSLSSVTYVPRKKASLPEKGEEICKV
Type: cell membranes, Membrane
Conditions: cho-k1

Row | Structure (SMILES) | IC50
29 | O=C(O)CCCCC1CCSS1 (stereo not drawn) [LIPOIC ACID, ALPHA] | Not Active
30 | CN(C)C(=O)C(CCN1CCC(O)(c2ccc(Cl)cc2)CC1)(c1ccccc1)c1ccccc1 [LOPERAMIDE] | Not Active
31 | Oc1ccc2c3c1O[C@H]1[C@@H](O)CC[C@@]4(O)[C@@H](C2)N(CC2CCC2)CC[C@]314 [NALBUPHINE] | Not Active
32 | C[C@]12C=CC(=O)C=C1CC[C@@H]1[C@@H]2C(=O)C[C@@]2(C)[C@H]1CC[C@]2(O)C(=O)CO [PREDNISONE] | Not Active
33 | COC(=O)[C@H]1[C@H]2C[C@@H]3c4[nH]c5cc(OC)ccc5c4CCN3C[C@H]2C[C@@H](OC(=O)c2cc(OC)c(OC)c(OC)c2)[C@@H]1OC [RESERPINE] | Not Active
34 | O=C(O)c1ccccc1O [SALICYLIC ACID] | Not Active
35 | C[S+]([O-])c1ccc(-c2nc(-c3ccncc3)c(-c3ccc(F)cc3)[nH]2)cc1 (centres undefined) [SB-203580] | Not Active

Molecular target: cGMP-specific 3',5'-cyclic phosphodiesterase (Homo sapiens, UniProt O76074)
Assay: DRUGMATRIX: Phosphodiesterase PDE5 enzyme inhibition (substrate: [3H]cGMP + cGMP)
Type: tissue-based, Platelet
Conditions: Not Active = under 50% inhibition at 10 µM; read-out: IC50

Row | Structure (SMILES) | IC50 [µM]
36 | C[S+]([O-])c1ccc(-c2nc(-c3ccncc3)c(-c3ccc(F)cc3)[nH]2)cc1 (centres undefined) [SB-203580] | 11.5

Same assay, conditions: platelet; Not Active = under 50% inhibition at 10 µM

Row | Structure (SMILES) | IC50
37 | O=C(O)CCCCC1CCSS1 (stereo not drawn) [LIPOIC ACID, ALPHA] | Not Active
38 | CN(C)C(=O)C(CCN1CCC(O)(c2ccc(Cl)cc2)CC1)(c1ccccc1)c1ccccc1 [LOPERAMIDE] | Not Active
39 | Oc1ccc2c3c1O[C@H]1[C@@H](O)CC[C@@]4(O)[C@@H](C2)N(CC2CCC2)CC[C@]314 [NALBUPHINE] | Not Active
40 | C[C@]12C=CC(=O)C=C1CC[C@@H]1[C@@H]2C(=O)C[C@@]2(C)[C@H]1CC[C@]2(O)C(=O)CO [PREDNISONE] | Not Active
41 | COC(=O)[C@H]1[C@H]2C[C@@H]3c4[nH]c5cc(OC)ccc5c4CCN3C[C@H]2C[C@@H](OC(=O)c2cc(OC)c(OC)c(OC)c2)[C@@H]1OC [RESERPINE] | Not Active
42 | O=C(O)c1ccccc1O [SALICYLIC ACID] | Not Active

Molecular target: Acetylcholinesterase (Homo sapiens, UniProt P22303)
Sequence (P22303 whole entry): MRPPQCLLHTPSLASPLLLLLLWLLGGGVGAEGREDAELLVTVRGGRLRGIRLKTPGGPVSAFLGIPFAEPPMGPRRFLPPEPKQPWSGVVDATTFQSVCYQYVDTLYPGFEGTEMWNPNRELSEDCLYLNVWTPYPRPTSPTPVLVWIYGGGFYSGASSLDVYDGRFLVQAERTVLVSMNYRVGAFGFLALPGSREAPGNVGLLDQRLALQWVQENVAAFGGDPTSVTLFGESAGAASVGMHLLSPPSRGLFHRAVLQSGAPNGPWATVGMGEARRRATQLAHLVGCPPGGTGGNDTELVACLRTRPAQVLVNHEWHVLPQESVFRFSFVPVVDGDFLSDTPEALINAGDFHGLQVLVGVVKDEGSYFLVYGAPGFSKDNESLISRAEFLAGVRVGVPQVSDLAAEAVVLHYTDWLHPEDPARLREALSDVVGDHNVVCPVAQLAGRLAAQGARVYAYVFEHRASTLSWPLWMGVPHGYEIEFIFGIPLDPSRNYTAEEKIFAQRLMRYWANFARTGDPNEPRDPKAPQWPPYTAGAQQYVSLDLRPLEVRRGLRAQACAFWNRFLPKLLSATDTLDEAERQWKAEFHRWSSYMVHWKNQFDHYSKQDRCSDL
Assay: DRUGMATRIX: Acetylcholinesterase enzyme inhibition (substrate: acetylthiocholine)
Type: cell-based, HEK293
Conditions: hek293; Not Active = under 50% inhibition at 10 µM

Row | Structure (SMILES) | IC50
43 | O=C(O)CCCCC1CCSS1 (stereo not drawn) [LIPOIC ACID, ALPHA] | Not Active
44 | CN(C)C(=O)C(CCN1CCC(O)(c2ccc(Cl)cc2)CC1)(c1ccccc1)c1ccccc1 [LOPERAMIDE] | Not Active
45 | Oc1ccc2c3c1O[C@H]1[C@@H](O)CC[C@@]4(O)[C@@H](C2)N(CC2CCC2)CC[C@]314 [NALBUPHINE] | Not Active
46 | C[C@]12C=CC(=O)C=C1CC[C@@H]1[C@@H]2C(=O)C[C@@]2(C)[C@H]1CC[C@]2(O)C(=O)CO [PREDNISONE] | Not Active
47 | COC(=O)[C@H]1[C@H]2C[C@@H]3c4[nH]c5cc(OC)ccc5c4CCN3C[C@H]2C[C@@H](OC(=O)c2cc(OC)c(OC)c(OC)c2)[C@@H]1OC [RESERPINE] | Not Active
48 | O=C(O)c1ccccc1O [SALICYLIC ACID] | Not Active
49 | C[S+]([O-])c1ccc(-c2nc(-c3ccncc3)c(-c3ccc(F)cc3)[nH]2)cc1 (centres undefined) [SB-203580] | Not Active

From ChEMBL document CHEMBL1909046, “DrugMatrix in vitro pharmacology data”
